# Reference: article PMC10547238, “Discovery of Potent Tetrazole Free Fatty Acid Receptor 2 Antagonists” (Journal of Medicinal Chemistry, 2023)
# Values joined by “and” are separate entries in the source; they are usually repeats but may differ in a detail not shown here. Equal values may be shown once. Read-outs that look alike come from different tables or passages of the source.
# Assays:
# hFFA2 = target: T1, hFFA2 (Homo sapiens, UniProt O15552); experiment: cAMP assay, antagonist mode, Flp-In T-Rex 293 cells expressing hFFA2-eYFP; assay type: cell-based; details: for cAMP pIC50: hFFA2, antagonist mode, propionate at EC80, mean ± SEM, three or more experiments; for LLEcAMP: pIC50, cAMP – ClogP; for LLEcAMP-logD: pIC50, cAMP – logD7.4
# T1 construct: expressed in transfected cells; host or cells: Flp-In T-Rex 293 cells, doxycycline-induced
# T1 sequence (O15552 1-330): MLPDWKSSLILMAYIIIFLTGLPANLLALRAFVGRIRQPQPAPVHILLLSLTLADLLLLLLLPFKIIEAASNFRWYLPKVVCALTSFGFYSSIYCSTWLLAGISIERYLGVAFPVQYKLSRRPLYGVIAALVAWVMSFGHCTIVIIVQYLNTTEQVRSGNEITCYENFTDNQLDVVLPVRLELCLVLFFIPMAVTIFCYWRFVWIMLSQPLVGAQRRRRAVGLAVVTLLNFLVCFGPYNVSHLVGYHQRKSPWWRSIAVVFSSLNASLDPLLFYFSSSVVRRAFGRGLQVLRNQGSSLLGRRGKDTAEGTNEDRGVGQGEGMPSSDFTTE
# Protocol: (§1) The activity of the compounds on FFA2 was evaluated in two different functional antagonist assays, both using propionate at EC80 as the agonist. The GTPγS assay reflects receptor activation by directly assessing G protein recruitment, whereas the cAMP assay, performed in whole cells, reflects a physiologically relevant downstream second messenger.
# The hFFA2-eYFP and hFFA3-eYFP Flp-In T-Rex 293 cell lines were maintained in Dulbecco’s modified Eagle mMedium (DMEM, ThermoFisher #11965092) supplemented with 10% (v/v) fetal bovine serum, 100 U/mL penicillin, 100 μg/mL streptomycin, 5 μg/mL blasticidin S, and 200 μg/mL hygromycin B and incubated at 37 °C and 5% CO2 in a humidified incubator. Cells were passaged at 70–80% confluency.
# To determine the compound’s ability to activate or inhibit the Gi-coupled FFA2 or FFA3, intracellular cAMP concentrations were determined using Flp-In T-Rex293 cells induced to express hFFA2-eYFP or hFFA3-eYFP. Experiments were carried out using a homogeneous time-resolved FRET-based detection kit (CisBio, PerkinElmer #62AM9PEC) according to the manufacturer’s protocol. The day before the assay, 10,000 cells/well were plated in DMEM supplemented with penicillin/streptomycin (100 units/mL and […], respectively), 5 μg/mL blasticidin S, and 200 μg/mL hygromycin B in 96-well cell culture microplates (Greiner Bio-One) and induced to express hFFA2-eYFP or hFFA3-YFP with 100 ng/mL doxycycline.
# In antagonist mode, the cells were pre-incubated for 20 min with antagonist test compounds in HBSS together with 50 μM IBMX at rt. Then, the cells were further incubated for 25 min at rt in HBSS with the agonist compound, sodium propionate at EC80 (51.4 μM for FFA2, 13.2 μM for FFA3), and 3 μM forskolin. Reactions were stopped, and the output was measured with an Envision plate reader using a time-resolved fluorescence protocol, measuring the light emission at 620 and 665 nm. All analyses were performed in triplicate and analyzed using GraphPad Prism (version 9).
# human FFA2-eYFP = target: T2, human FFA2-eYFP (Homo sapiens, UniProt O15552); experiment: [35S]GTPγS incorporation assay, membranes of Flp-In T-Rex 293 cells; assay type: biochemical; details: for GTPγS pIC50: hFFA2, propionate at EC80, mean ± SEM, three or more experiments; for LLEGTPγS: pIC50, GTPγS – ClogP
# T2 construct: expressed in transfected cells; host or cells: membranes of Flp-In T-Rex 293 cells induced to express the construct
# T2 sequence (O15552 1-330): T1 sequence (O15552 1-330)
# Protocol: as §1
# Functional activity of the compounds were tested in a [^35S]GTPγS incorporation assay using membranes of Flp-In T-Rex 293 cells induced to express human FFA2-eYFP. […] The reaction was initiated by addition of [^35S]GTPγS (100 nCi per reaction) containing 1 μM GDP and incubated at 30 °C for 60 min. The reaction was terminated by rapid vacuum filtration through GF/C glass fiber filter-bottom 96-well microplates (PerkinElmer Life Sciences, Beaconsfield, UK) using a UniFilter FilterMate Harvester (PerkinElmer). Unbound radioligands were removed from filters by three washes with ice-cold PBS. MicroScint-20 (PerkinElmer) was added to dried filters, and [^35S]GTPγS binding was quantified by liquid scintillation spectroscopy.
# [1] = Kinetic aqueous solubility; assay type: physicochemical; details: phosphate buffer; kinetic solubility in PBS at pH 7.4 and 25 °C
# Protocol: Twenty microliters of a 10 mM compound stock solution in DMSO was added to an Eppendorf tube containing 980 μL of phosphate buffer (10 mM, pH = 7.4). The samples were incubated in an Eppendorf Thermomixer (25 °C, 800 rpm) for 24 h. Afterward, the samples were centrifuged for 5 min at 11,000 rpm and the supernatant was filtered (0.2 μm PTFE membrane) before analysis by HPLC. Each compound was analyzed in duplicate. The solubility was calculated from the peak area relative to the reference samples (200 μM in MeOH/MilliQ H2O, 60/40, v/v).
# [2] = Lipophilicity (logD7.4), octanol/PBS7.4 shake flask; assay type: physicochemical; details: 1-octanol/PBS7.4, pH 7.4; mean of two independent experiments
# Protocol: The assay was performed in duplicates essentially as previously described.[58] A glass vial with a screw cap (8 mL) was charged with the test compound (40 μL, 10 mM in DMSO), PBS7.4 (0.01 M, 1980 μL), and 1-octanol (1980 μL). The vial was capped and sealed with a Parafilm and shaken at 700 rpm using an IKA KS 125 basic shaker for 24 h at 25 °C. The Parafilm was removed, and the sample was allowed to equilibrate for 1 h before analysis. One hundred microliters of the octanol phase was withdrawn and diluted 1:10 with MeOH (+0.1% TFA)/MilliQ water (4:1, v/v) and analyzed by HPLC. The interface was removed, and the PBS7.4 phase analyzed directly by HPLC. All analysis was performed in duplicates, and log D7.4 values were calculated from the peak areas (mAU·min) and adjusted for difference in injection volume and concentration-absorption effects from the solvents, using two calibration points per compound per solvent, and dilution of the octanol phase.
# [3] = Chemical stability in PBS7.4; assay type: physicochemical
# Protocol: Duplicates of 1 mL of a 50 μM solution were prepared by adding the 10 mM stock solution to a 1.5 mL Eppendorf tube and diluting it with PBS7.4. The Eppendorf tubes were incubated at 37 °C with gentle shaking (650 rpm) using an Eppendorf Thermomixer. The samples were briefly vortexed, and 50 μL aliquots were withdrawn at the time points 0, 12, 48, etc.; added to 250 μL vials; and analyzed immediately by HPLC. The chemical stability in PBS7.4 was determined at every time point in percentage relative to the 0 h time point.
# [4] = remaining, PBS7.4 at 37 °C, 10 days
cAMP pIC50 (hFFA2),LLEcAMP (hFFA2),LLEcAMP-logD (hFFA2),GTPγS pIC50 (human FFA2-eYFP),LLEGTPγS (human FFA2-eYFP),solubility at 24 h [1] [µM],logD at 25 h [2],"chemical stability [3, 4] [%]","IC50 (hFFA2; inhibition of propionate at FFA2, read-out: IC50 in cAMP assay)",IC50 (human FFA2-eYFP; inhibition of propionate at FFA2),chemical stability ([3]; supplementary CSV) [%],"IC50 (hFFA2; supplementary CSV, read-out: hFFA2 cAMP (pIC50) (converted)) [nM]","increase in potency (hFFA2; vs 16s, assay not specified) [fold]",Compound
6.96 ± 0.07,2.75,5.57,6.68 ± 0.05,2.47,166,1.39 ± 0.01,90,–,–,–,–,–,"O=C(O)C[C@H](Cc1ccc(C(F)(F)F)cc1)NC(=O)Cc1cccc(Cl)c1 [Compound 3, reference compound]"
8.35 ± 0.15,5.87,7.5 and 7.51,8.46 ± 0.05,5.98,176,0.84 ± 0.01,>95,3 to 4 nM and 4 nM,3 to 4 nM and 4 nM,>95,–,–,"COc1cccc(CC(=O)N[C@@H](Cc2ccc(C(F)(F)F)cc2)Cc2nnn[nH]2)c1 [Compound 16l, (S)-N-(1-(1H-Tetrazol-5-yl)-3-(4-(trifluoromethyl)phenyl)propan-2-yl)-2-(3-methoxyphenyl)acetamide]"
7.83 ± 0.14,5.90,7.1 and 7.12,8.21 ± 0.09,6.28,183,0.71 ± 0.06,>95,–,–,>95,10.2,9,"O=C(Cc1cncc(Br)c1)N[C@@H](Cc1ccc(C(F)(F)F)cc1)Cc1nnn[nH]1 [Compound 16w, (S)-3-(2-((1-(1H-Tetrazol-5-yl)-3-(4-(trifluoromethyl)phenyl)propan-2-yl)amino)-2-oxoethyl)-5-bromopyridin-1-ium 2,2,2-trifluoroacetate]"
